“And” between values parts separate entries of the source, which are not always exact repeats. Equal values may be shown once.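 Method: 48-hour compound exposure of cells in 96-well plates, five concentrations, linear interpolation of endpoints. GI50 = concentration required for 50% inhibition of growth. TGI is the concentration that stops growth completely.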
Tests used:
Assay in all cases: DTP human tumour cell line panel, 48 h
M14 melanoma = system: M14 melanoma
SK-OV-3 ovarian = system: SK-OV-3 ovarian
OVCAR-5 ovarian = system: OVCAR-5 ovarian
A549 NSCLC = system: A549 NSCLC
SW-620 colon = system: SW-620 colon
COLO 205 colon = system: COLO 205 colon
LOX IMVI melanoma = system: LOX IMVI melanoma
HOP-92 NSCLC = system: HOP-92 NSCLC
HS 578T breast = system: HS 578T breast
HL-60(TB) leukemia = system: HL-60(TB) leukemia

SMILES | TGI (M14 melanoma) | TGI (SK-OV-3 ovarian) | TGI (OVCAR-5 ovarian) | TGI (A549 NSCLC) | TGI (SW-620 colon) | TGI (COLO 205 colon) | TGI (LOX IMVI melanoma) | TGI (HOP-92 NSCLC) | TGI (HS 578T breast) | TGI (HL-60(TB) leukemia) [µM] | GI50 (M14 melanoma) | GI50 (SK-OV-3 ovarian) | GI50 (OVCAR-5 ovarian) | GI50 (A549 NSCLC) | GI50 (SW-620 colon) | GI50 (COLO 205 colon) | GI50 (LOX IMVI melanoma) | GI50 (HOP-92 NSCLC) | GI50 (HS 578T breast) | GI50 (HL-60(TB) leukemia)
COc1ccc(-c2c(C)c(C(=O)O)nc(-c3ccc4c(O)c(OC)c5c(c4n3)=NC(C)(C)N=5)c2N)c(O)c1OC | 74.6 µM | 65.6 µM | > 100 µM | 55.5 µM | 35.4 µM | 77.1 µM | 25.7 µM | > 100 µM | > 100 µM | 37.1 |  |  |  |  |  |  |  |  |  | 
C[C@H]1[C@H](C)N1CC(O)Cn1ccnc1[N+](=O)[O-] (stereo partly drawn) | > 100 µM | > 100 µM | > 100 µM | > 100 µM | > 100 µM | > 100 µM | > 100 µM | > 100 µM | > 100 µM | > 100 |  |  |  |  |  |  |  |  |  | 
COc1cc(/C=C/c2ccc(C)cc2)cc(OC)c1OC | 15.3 µM | 39 µM | 21.9 µM | 70.1 µM | > 68.6 µM | 13.2 µM | 13.5 µM | 25.5 µM | 9.71 µM | 21.9 |  |  |  |  |  |  |  |  |  | 
COc1ccc2c(c1)/C(=C\c1ccncc1)C(=O)N2 | 26 µM | 79.9 µM | 49.2 µM | 46.4 µM | 43.8 µM | 44.7 µM | 5.82 µM | 98 µM | 82.1 µM | > 100 | 8.33 µM | 19.5 µM | 23 µM | 17.3 µM | 10.4 µM | 11.9 µM | 2.26 µM | 22.4 µM | 27.4 µM | 6.8 µM
COc1ccc(C(=O)Cn2c(C(=O)c3ccccc3)nc3ccccc32)cc1 | > 100 µM | > 100 µM | > 100 µM | > 100 µM | > 100 µM | > 100 µM | > 100 µM | > 100 µM | > 100 µM | > 22.9 | 2.93 µM | 6.58 µM | > 26.1 µM | 6.05 µM | 1.15 µM | 5.12 µM | 5.18 µM | > 100 µM | 2.81 µM | 0.916 µM
NC(=N\N=C/c1ccc(O)cc1)/C(N)=N\N=C/c1ccc(O)cc1 | > 100 µM | > 100 µM | > 100 µM | > 100 µM | > 100 µM | > 100 µM | > 100 µM | > 100 µM | > 100 µM |  | 5.56 µM | 44.8 µM | > 100 µM | > 25.5 µM | > 23.6 µM | > 93.5 µM | 0.435 µM | 60.3 µM | > 68.9 µM | 0.251 µM
Cc1cn2c(/C=C3/C(=O)Nc4c3ccc3ccccc43)c(C(F)(F)F)nc2s1 | 11.7 µM | 69.3 µM | > 100 µM | > 100 µM | > 100 µM | 1.9 µM | 21.1 µM | 98.7 µM | 78.7 µM | 32.4 | 0.526 µM | 1.25 µM | 9.99 µM | 1.18 µM | 0.965 µM | 0.398 µM | 1.07 µM | 5.1 µM | 3 µM | 0.54 µM
[2H]C([2H])([2H])NC(=O)c1nnc(NC(=O)C2CC2)cc1Nc1cccc(-c2ncn(C)n2)c1OC | > 100 µM | 48.9 µM | > 100 µM | > 100 µM | > 100 µM | > 100 µM | > 100 µM | > 100 µM | > 100 µM | 82.6 | 9.22 µM | 5.02 µM | > 100 µM | 50.1 µM | 41.6 µM | 97.1 µM | 14.5 µM | 17.9 µM | 14.7 µM | 14 µM
O=[N+]([O-])c1cc[n+]([O-])c2ccccc12 | 0.521 µM | 5.55 µM | 6.1 µM | 0.584 µM | 0.56 µM | 0.488 µM | 0.418 µM | 0.758 µM | 0.703 µM | 4.29 | 0.182 µM | 1.78 µM | 2.42 µM | 0.149 µM | 0.106 µM | 0.153 µM | 0.156 µM | 0.13 µM | 0.216 µM | 1.05 µM
O=C1NC(N/N=C\C(O)C(O)C(O)C(O)CO)=N/C1=C/c1ccccc1 (stereo not drawn) | > 100 µM and 31.6 µM | > 100 µM and 37.8 µM | > 100 µM and 44.9 µM | > 100 µM and 45.7 µM | > 100 µM and 83.4 µM | > 100 µM and 41.6 µM | > 100 µM and 36.4 µM | > 100 µM and 33.9 µM | > 100 µM and 73.4 µM | > 100 | 52.6 µM and 15.4 µM and > 100 µM | > 100 µM and 20.2 µM | > 100 µM and 24.4 µM | > 100 µM and 19 µM | 54.2 µM and 23 µM and > 100 µM | > 100 µM and 19.3 µM | > 100 µM and 17.7 µM | 60.1 µM and 15.5 µM and > 100 µM | > 100 µM and 24.6 µM | 77.2 µM and 41.8 µM and > 100 µM
OC1(c2ccccc2)C2CC=CC2C1(c1ccccc1)c1ccccc1 (stereo not drawn) | > 100 µM | > 100 µM | > 100 µM | > 100 µM | > 100 µM | 44.6 µM | 37.9 µM | > 100 µM | > 100 µM | 95.7 |  |  |  |  |  |  |  |  |  | 
CO/N=C(\COc1ccc2c(=O)c3ccccc3oc2c1)c1ccccc1 | > 100 µM | 77 µM | > 100 µM | 99.4 µM | > 100 µM | > 100 µM | > 100 µM | 64 µM | 89.8 µM | > 100 | 73.5 µM | 29.7 µM | 38.4 µM | 35.2 µM | 55.9 µM | > 100 µM | 35.9 µM | 25.7 µM | 30.6 µM | > 100 µM
C#C[C@]1(O)CC[C@H]2[C@@H]3CC=C4c5sc(Nc6cc(F)ccc6F)nc5CC[C@]4(C)[C@H]3CC[C@@]21C | 2.77 µM | 10.2 µM | 5.18 µM | 7.86 µM | 4.38 µM | 4.81 µM | 2.87 µM | 5.49 µM | 7.13 µM | 7.96 | 1.28 µM | 2.78 µM | 1.93 µM | 2.51 µM | 1.78 µM | 2.05 µM | 1.49 µM | 2.06 µM | 0.424 µM | 2.54 µM
C=CO/N=[N+](\[O-])N(CC)CC | > 100 µM | > 100 µM | > 100 µM | > 100 µM | > 100 µM | > 100 µM | > 100 µM | > 100 µM | > 100 µM | > 100 |  |  |  |  |  |  |  |  |  | 
COc1cc2c3c(n(CCCN)c(=O)c2cc1OC)-c1ccc([N+](=O)[O-])cc1C3=O | 19.4 µM | 28.7 µM | 30.7 µM | 34.7 µM | 19.1 µM | 22.8 µM | 16.6 µM | 30.5 µM | 46.1 µM | 37.8 | 5.77 µM | 12.2 µM | 15.9 µM | 9.88 µM | 2.12 µM | 10.1 µM | 2.28 µM | 10.5 µM | 22.5 µM | 17.8 µM
COC(=O)c1c2c(c(C)[n+]([O-])c1C)C(=O)C=C(NCc1ccccc1)C2=O | 1.87 µM | 4.18 µM | 2.7 µM | 3.46 µM | 1.54 µM | 0.776 µM | 1.53 µM | 4.37 µM | 6.88 µM | 1.19 | 0.55 µM | 2.03 µM | 1.35 µM | 1.1 µM | 0.375 µM | 0.274 µM | 0.34 µM | 2.17 µM | 2.19 µM | 0.317 µM
C=CC(=O)N1CCC(c2ccc(C(N)=O)c(-c3ccc(Oc4ccccc4)cc3)n2)CC1 | > 100 µM | > 100 µM | > 100 µM | > 100 µM | > 100 µM | > 100 µM | > 100 µM | 76.6 µM | > 100 µM | 58.8 | 34.3 µM | 23.4 µM | > 100 µM | 28.9 µM | 41.2 µM | 42 µM | 26.3 µM | 10.4 µM | 37.2 µM | 19.5 µM
Cc1ccc(/C=C(\C#N)c2cc3ccccc3n2C)cc1 | > 100 µM | > 100 µM | > 100 µM | > 100 µM | > 100 µM | > 43.5 µM | > 100 µM | > 100 µM | > 100 µM | 2.56 | 0.268 µM | > 100 µM | 0.632 µM | 0.463 µM | 0.361 µM | 0.41 µM | 0.542 µM | 1.13 µM | 0.448 µM | 0.277 µM
O=C(CCN1CCCC1)Nc1ccc2c(NCc3ccccc3)c3ccccc3nc2c1 | 2.03 µM | 2.56 µM | 2.06 µM | 1.68 µM | 1.44 µM | 1.36 µM | 1.31 µM | 2.19 µM | 2.75 µM | 2.8 | 0.657 µM | 0.43 µM | 0.424 µM | 0.352 µM | 0.316 µM | 0.319 µM | 0.328 µM | 0.348 µM | 0.612 µM | 0.587 µM
COc1ccc2c(c1)nc(NNC(=O)c1cnccn1)c1cccn12 | 3.78 µM | 3 µM | 5.11 µM | 3.45 µM | 9.43 µM | 3.01 µM | 1.57 µM | 3.22 µM | 11.1 µM |  | 0.275 µM | 0.281 µM | 0.962 µM | 0.298 µM | 0.403 µM | 0.264 µM | 0.0837 µM | 0.952 µM | 1.66 µM | 0.257 µM
O=C1CCc2c(sc3[nH]c(=S)n(-c4cc(C(F)(F)F)cc(C(F)(F)F)c4)c(=O)c23)C1 | 11.9 µM | 5.54 µM | 2.19 µM | 11.3 µM | 15.7 µM | 0.668 µM | 5.62 µM | 0.692 µM | 16.4 µM | 1.21 | 0.463 µM | 0.947 µM | 0.438 µM | 0.707 µM | 0.376 µM | 0.258 µM | 0.392 µM | 0.205 µM | 0.339 µM | 0.304 µM
